According to paper PMC11745346 (Proceedings of the National Academy of Sciences of the …, 2024):

Target: Kv1.1 (Homo sapiens, UniProt Q09470)
Assay: two-electrode voltage clamp in Xenopus oocytes, reference opener
Type: cell-based

Kv1.1, sequence (Q09470 whole entry): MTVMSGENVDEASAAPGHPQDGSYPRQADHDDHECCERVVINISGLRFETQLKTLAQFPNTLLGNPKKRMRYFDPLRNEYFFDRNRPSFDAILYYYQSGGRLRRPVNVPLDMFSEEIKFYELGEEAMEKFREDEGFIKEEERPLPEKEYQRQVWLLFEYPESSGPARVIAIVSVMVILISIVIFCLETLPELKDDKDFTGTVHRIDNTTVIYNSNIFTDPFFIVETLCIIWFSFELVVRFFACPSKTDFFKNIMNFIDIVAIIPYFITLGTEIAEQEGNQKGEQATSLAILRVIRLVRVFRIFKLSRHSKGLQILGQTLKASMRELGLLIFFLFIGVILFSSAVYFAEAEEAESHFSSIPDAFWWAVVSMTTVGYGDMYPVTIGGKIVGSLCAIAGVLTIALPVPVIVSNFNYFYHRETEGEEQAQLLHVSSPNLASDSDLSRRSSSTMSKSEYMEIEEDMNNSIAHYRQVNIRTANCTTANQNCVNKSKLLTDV

EC50: 347 µM
Compound: O=C(O)c1cccnc1Nc1cccc(C(F)(F)F)c1 [niflumic acid]
